From paper PMC11091117, “A fluorescently-tagged tick kinin neuropeptide triggers peristalsis and labels tick midgut muscles” (Scientific Reports, 2024)

What was measured:
[1] = test system: vector-only (V/O) CHO-K1 cells; experiment: Cellular end-point fluorescence calcium mobilization assay, vector-only control cells; type: cell-based; settings: 10 µM peptide, Fluo-8, 29 °C, 60 s, 4 technical replicates
Text: Three peptides were used in this study. These included: 1) the ligand for the endogenous tick kinin receptor from Rhipicephalus sanguineus, Rhisa-kinin 8 peptide of sequence GTGEDQAFSPWGamide (Rhisa-K-8; RK8; of identical sequence to Rhimi-K-8 in Rhipicephalus microplus)[48], 2) the same peptide but fluorescently labeled at the N-terminus with tetramethylrhodamine (TMR) a red fluorescent dye, designated TMR-Rhisa-K-8 (TMR-RK8), and 3) a labeled peptide synthesized with the scrambled sequence of the kinin ligand, designated TMR-Scrambled. The sequence of TMR-RK8 was TMR-C-GTGEDQAFSPWGamide). The TMR-Scrambled kinin (TMR-C-GTQWGPGFEADSamide) served as a negative control for tissue labeling. […]
A fluorescence-based intracellular calcium mobilization end-point assay described by Xiong, et al.[50] was used to confirm the activity of the TMR-labeled RK8 peptide on a cell line expressing the tick kinin receptor. […] The calcium fluorescence signal was detected by a CLARIOstar (BMG LABTECH, Chicago, IL, United States) plate reader set to read at the fluorescence plate-mode with excitation and emission wavelengths of 490 and 525 nm at 29 °C. Calcium responses were read immediately after the addition of 10 µL of either TMR-RK8, unlabeled RK8, or blank solvent (1% DMSO in HBSS). […]

[2] = test system: vector-only (V/O) CHO-K1 cells; experiment: Fluorescence microscopy validation of labeled peptide specificity on live vector-only cells; type: binding; settings: 1 µM TMR-RK8, 5 min at room temperature, HBSS; Zeiss Axio Observer, BPTmX channel
Description: BMLK3 and vector-only cells were cultured in selective media (F-12K medium containing 10% fetal bovine serum and 800 µg/mL-1 of G418 sulfate), cells were seeded in […] (CELLSTAR®, Greiner Bio-One®, Monroe, NC USA) at 20,000 cells per well and were incubated overnight. The next assay, the cell culture medium was removed, and cells were rinsed twice with 200 µl DPBS, and 180 µl of HBSS buffer was added into each well. The peptide stock solutions were prepared in 1% DMSO in HBSS at 100 µM. TMR-RK8 (20 µl) was added into each well and incubated with the cells for 5 min at room temperature. The medium was then removed with a pipette and the cells were rinsed twice with 200 µl HBSS, and DAPI (VECTASHIELD® H-1200, Vector Laboratories) was added (20 µl of 0.15 µg/ml) for visualizing the cell nuclei. Cells were rinsed twice with 200 µl of HBSS, and finally 180 µl HBSS per well was added.
The cells were immediately imaged under a Zeiss Axio Observer® inverted fluorescence microscope. The exposure time for the Bodipy-Tetramethylrhodamine-X (BPTmX) fluorescence channel was the same for BMLK3 cells and V/O cells. DAPI imaging was done subsequently using the same focal height as the BPTmx channel.

TMR-C-GTGEDQAFSPWGamide [TMR-RK8]
calcium fluorescence response of vector-only cells (in words) [1]: invariable background fluorescence | labeling of vector-only cells, Fig. S1 (in words) [2]: only observed in the BLMK3 cells
